The compound `CN(C)C1(c2ccccc2)CCC(CNC(=S)NCCc2c[nH]c3ccccc23)CC1` (stereo not drawn) returned a melting point of 92 to 95 °C.

The compound `Cc1cc(C(F)(F)F)cc(Oc2ccc(CCNc3ncnc4scnc34)cc2)n1` showed a melting point of 111 to 112 °C.

Turning to `CC(C)(C)OC(=O)CN(CC(=O)OC(C)(C)C)S(=O)(=O)c1ccc(N2CCC(NC[C@H](O)c3ccc(O)c(NS(C)(=O)=O)c3)CC2)cc1`, the melting point was in the range of 164 to 166 °C.

As to `COc1ccc2cc(CO)ccc2c1Br`, the melting point lay within 85 to 87 °C.

The compound `CCCc1nc(SSc2nc(CCC)n(-c3ccc([N+](=O)[O-])cc3)n2)nn1-c1ccc([N+](=O)[O-])cc1` gave a melting point of 172 °C.

`Cc1nc(-c2cccc(Nc3ccc(I)cc3[N+](=O)[O-])c2)cs1` displayed a melting point of 137 to 138 °C.

The compound `CCc1cccc2c(NC(=O)C[C@H]3O[C@H](c4cccc(OC)c4OC)c4cc(Cl)ccc4N(CC(C)(C)CO)C3=O)c(C(=O)O)oc12` gave a melting point of 188 to 189 °C.

In turn, `CN=C(O)c1cc(Cl)c(Sc2ccccc2C(=O)O)cc1C(=O)O` returned a melting point of 258 to 266 °C.

`CC(C)(C)OC(=O)N[C@@H](CO)C(=O)NCCO` displayed a melting point of 74 to 76 °C.

With `O=C(Cc1ccc(Cl)cc1)Nc1cccc2nc(N[C@@H]3CCc4ccccc43)ccc12`, the melting point worked out at 170 °C.

`CC(=O)NCC1CN(c2c(F)c(N)c3c(=O)c(C(=O)O)cn(C4CC4)c3c2F)CCO1` (stereo not drawn) returned a melting point of 228 to 229 °C.

Compound `COC(=O)C=Cc1cc(OC)ccc1-c1ccccc1` returned a melting point of 175 to 177 °C.

The compound `COc1ccccc1N1CCN(CC(O)COc2ccc3cc(C(N)=O)oc3c2)CC1` (stereo not drawn) returned a melting point of 152 to 154 °C.

In turn, `CCOC(=O)Nc1nc(C)c(-c2nc3ccccc3c(=O)n2-c2ccc(C(C)=O)cc2)s1` came in with a melting point above 275 °C.

In turn, `O=C(c1cccc2[nH]ccc12)N1CCOCC1` showed a melting point of 127 to 129 °C.

`O=Cc1c[nH]c2c1ccc1c3cccc(Br)c3[nH]c12` displayed a melting point above 250 °C.

`C[C@H]1C(=O)C[C@@H]2C[C@H]1OO[C@]2(C)/C=C\c1ccc(Cl)c(Cl)c1` returned a melting point of 135 °C.

Turning to `CC(C)c1ccc(OC(Cc2ccc(OCCNC(=O)c3ccc(-c4ccc(F)cc4)cc3)cc2)C(=O)O)cc1` (stereo not drawn), the melting point lay within 192 to 193 °C.

Turning to `CCOC(=O)C(=CNc1cnsn1)C(=O)c1cc(F)c(F)c(F)c1F`, the melting point is 81 to 83 °C.

`CC(C)CC(C=O)NC(=O)C(Cc1c[nH]cn1)NC(=O)C(CNC(=O)Cc1cccc2ccccc12)Cc1ccccc1` (stereo not drawn) yielded a melting point of 105 to 109 °C.

Compound `O=C(Nc1n[nH]c(=S)s1)N[C@@H](Cc1ccccc1)C(=O)N1CCN(c2ccccn2)CC1` showed a melting point of 220 to 222 °C.

Turning to `CC(=O)NC[C@H]1OC(=O)N2c3ccc(C(=O)CCl)cc3C[C@H]12`, the melting point was 172 to 174 °C.

`CCN(CC)c1ccc(/C=C/C(=O)CC(=O)/C=C/c2ccc(OC)c(O)c2)c(O)c1`: the melting point was 101 to 108 °C.

Turning to `CON=C(C#N)C1=CCCN(OC(=O)Nc2ccccc2)C1`, the melting point is 128 to 130 °C.

In the case of `OCCN=C1c2ccccc2CCc2ccccc21`, the melting point was in the range of 93 to 94 °C.

Take `O=C1NC(c2ccccc2)C2=C1N=C1N=CNN1C2` (stereo not drawn): the melting point lay within 262 to 264 °C.

Consider `COc1cccc(S(=O)(=O)N2CCc3cc(O)c(OC)cc3C2)c1`, for which the melting point was 168 to 170 °C.

`CCc1cccc(CC)c1NC(=O)Nc1oc2ccc(Cl)cc2c1-c1ccccc1C` yielded a melting point of 233 to 234 °C.

`CCOC(=O)C(=Cc1cccn2c([N+](=O)[O-])c(C)nc12)N=[N+]=[N-]` showed a melting point of 196 to 198 °C.

Regarding `CNC(=O)n1cc(Br)cnc1=O`, the melting point was in the range of 236 to 238 °C.

Take `CCCN(CCC)CC(=O)OC1CC2(C)C(C#N)CCC2C2CCC3CC(O)CCC3(C)C12` (stereo not drawn): the melting point fell in the range of 114 to 116 °C.

As to `OC(CCN1CCN(c2ccccn2)CC1)COc1cccc(C(F)(F)F)c1` (stereo not drawn), the melting point was in the range of 81 to 81.5 °C.

`O=C(Nc1c(C(F)(F)F)n[nH]c1-c1ccccc1)c1ccccc1` gave a melting point of 229 to 230 °C.

In turn, `Cc1oc(-c2ccccc2)nc1COc1ccc(Cc2nc(CCC(=O)O)c(-c3ccccc3)o2)cc1` had a melting point of 136 to 137 °C.

`CN1C(=O)[C@@H](NC(=O)C=Cc2ccccc2)N=C(c2ccccc2)c2ccccc21`: the melting point lay within 126 to 140 °C.

In turn, `CC(CO)(CO)OCc1ccccc1F` gave a melting point of 74.5 to 75 °C.

In turn, `CC(C)c1c(S(=O)(=O)c2ccc(O)cc2)n(C)c2ccccc12` gave a melting point of 188 °C.

`COc1ccccc1NS(=O)(=O)c1ccc(N2CCNC2=O)cc1` gave a melting point of 209 to 211 °C.

`CC(=O)Nc1ccc(OC(C)CN2CCN(CCc3ccc(C(=O)O)cc3)CC2)cc1` (stereo not drawn) returned a melting point of 234 to 235 °C.

For `O=C1NCCN1Cc1ccncc1`, the melting point lay in the range of 153 to 155 °C.

`COC(=O)[C@H]1CC[C@@H](c2ccc(F)cc2)N1S(=O)(=O)c1ccc(C)cc1` (racemic) gave a melting point of 91 °C.

As for `CCCC(Oc1ccccc1COc1ccc2oc(-c3nc(C(C)(C)C)cs3)cc2c1)C(=O)O` (stereo not drawn), the melting point is 135 to 136 °C.

Turning to `COc1cc(I)c(C=O)cc1OC`, the melting point lay in the range of 139 to 141 °C.

Take `CCCc1c(C(=O)C(C)C)c2ccc(C(=O)O)cc2n1Cc1ccccc1C#N`: the melting point was in the range of 214 to 215 °C.

For `COc1cccc(C(O)C2c3ccccc3Cc3ccccc32)c1` (stereo not drawn), the melting point was determined as 106 °C.

In the case of `COCCOc1ccc(-c2ccc3c(c2)C=C(C(=O)Nc2ccc(CN(C)C4CCOCC4)cc2)CCS3(=O)=O)cc1`, the melting point is 227 to 231 °C.

The compound `CCOC(=O)c1ncoc1-c1ccc([N+](=O)[O-])cc1OC` showed a melting point of 106 to 107 °C.

`Nc1ncnc2c1c(-c1ccc(Oc3ccccc3)cc1)c(Br)n2C1CCOC1` (stereo not drawn) had a melting point of 205 to 206 °C.

`O=C(O)COCCC1CCN(c2cnc(-c3ccccc3)c(-c3ccccc3)n2)CC1` displayed a melting point of 173 to 174 °C.

For the compound `CNC(=O)c1cc(NCc2c(C)cccc2C)c2nc(C)[nH]c2c1`, the melting point was found to be 298 °C.

Regarding `Cn1ccc2c1Cc1nncn1C=C2`, the melting point came to 178 °C.

In turn, `C[C@@H](n1cnc2ccc(Cl)cc2c1=O)[C@](O)(Cn1cncn1)c1ccc(F)cc1F` returned a melting point of 188 to 189 °C.

In turn, `COC(=O)c1ccc(-c2ccc3c(c2)CCN(C2CCN(C4CCC4)C2)C3=O)c(F)c1` (stereo not drawn) registered a melting point of 75 °C.

The compound `CSc1nncc(-c2ccccc2)n1` yielded a melting point of 99 to 100 °C.

`CC12CCC3C(CC(O)C4(O)CC=CCC34C)C1CCC2=O` (stereo not drawn) registered a melting point of 183 to 186 °C.

As for `CCC(CC)N1C(=O)NCc2c1cc(C)nc2Oc1c(C)cc(C)cc1C`, the melting point fell in the range of 197 to 199 °C.

`O=C(Nc1ncccn1)c1c(Cl)ccc2c1OCCO2` gave a melting point of 223 °C.

Compound `O=C(O)c1cn(C2COC2)c2c(F)c(N3CCNCC3)cc(F)c2c1=O` registered a melting point above 300 °C.

Consider `COc1ccc(Nc2nc(-c3ccccc3)c(C(=O)c3sc(Nc4ccc(OC)cc4)nc3-c3ccccc3)s2)cc1`, for which the melting point is above 285 °C.

Compound `COc1ccc(S(=O)(=O)Nc2ccccc2NC(=O)c2cccnc2)cc1` displayed a melting point of 179 to 180 °C.

Regarding `NC(=NCC(F)(F)F)Nc1ccnc(SCCCC(=O)NCCO)n1`, the melting point fell in the range of 148 to 150 °C.

Turning to `CNC(=O)c1cc2nc(C(F)(F)F)ccc2c(Cl)c1NC(=O)c1cc(C(F)(F)F)nn1-c1ncccc1Cl`, the melting point was 235 to 237 °C.

As for `CCOc1c(-c2ccc(O)c(OC)c2)oc2cc(OC)cc(O)c2c1=O`, the melting point lay within 168 to 169 °C.

`CN(CCCNC(=O)c1c2ccccc2nc2ccccc12)CCCNC(=O)c1c2ccccc2nc2c1[nH]c1ccccc12` returned a melting point of 108 to 110 °C.

Turning to `CCC(C(=O)OC1C=CC=CO1)C(=O)OC1C=CC=CO1` (stereo not drawn), the melting point lay within 90 to 92 °C.

`Cc1cc(C(=O)CC(=O)C(F)(F)F)c(F)cc1Cl`: the melting point fell in the range of 59 to 60 °C.

`O=c1cc(N2CCOCC2)oc2ccc(Cl)cc12` showed a melting point of 194 to 195 °C.

In turn, `COc1ccc2c(c1)C(Cl)c1ccccc1CO2` (stereo not drawn) displayed a melting point of 133 to 134 °C.

In turn, `CS(=O)(=O)c1nnc(-c2ccc(Cl)cc2)o1` gave a melting point of 159 to 160 °C.

On to `CCc1ccccc1CC1CNC(=O)O1` (stereo not drawn), for which the melting point lay in the range of 104 to 105 °C.

Compound `CC(C)(C)c1cccc(C(C)(C)C)c1OS(C)(=O)=O` returned a melting point of 83 °C.

For the compound `CCOC(=O)c1c[nH]c2c(C)csc2c1=O`, the melting point was 238 to 242 °C.

As to `CS(=O)(=O)C(=[N+]=[N-])C(=O)CCc1ccccc1`, the melting point was in the range of 52.5 to 54 °C.

In the case of `CCCCCCCCCCCCCCOc1ccc(CC(=O)Cl)cc1OC`, the melting point fell in the range of 56 to 57 °C.

As to `Cc1c(SCCN2CCOCC2)ccnc1CSc1nc2ccccc2s1`, the melting point lay within 91 to 93 °C.

Regarding `CCC(C)(C)c1ccc(OCC(=O)O)c(C(C)(C)C)c1`, the melting point lay within 140 to 144 °C.

With `CCOC(=O)c1cnn2c(-c3ccc(OC)c(OC)c3)ccnc12`, the melting point lay in the range of 148 to 149 °C.

In the case of `CCC(=O)C1=C(O)CC(c2cc3c(cc2[N+](=O)[O-])OCO3)CC1=O` (stereo not drawn), the melting point is 139 °C.

Take `O=C(Nc1ccccc1)c1c(C(=S)Nc2ccccc2)cccc1-c1ccccc1`: the melting point is 150 to 152 °C.

Take `CCCOCCOc1ccc(-c2ccc3c(c2)C=C(C(=O)Nc2ccc(CN(C)C4CCOCC4)cc2)CCS3(=O)=O)c(C)c1C`: the melting point is 158 to 159 °C.

Regarding `O=C(O)CC(CC(=O)O)C(F)(F)F`, the melting point was 100 °C.

On to `COc1cccc2c1Sc1cc(Cl)ccc1C2`, for which the melting point lay within 72 to 74 °C.

`Cc1cccc(CO)c1CNc1cc(C(=O)N(C)C)cc2c1nc(C)n2C` registered a melting point of 197 to 198 °C.

For `ClCc1cc(OCc2ccc3ccccc3n2)no1`, the melting point was in the range of 126 to 127 °C.

Regarding `CCCN1C(=O)N2CCN=C2c2[nH]cnc21`, the melting point was in the range of 283 to 285 °C.

Compound `Cc1sc2cc(C(=O)NCC3(SCc4ccccc4)CCNCC3)[nH]c2c1N(C)S(=O)(=O)c1cccs1` came in with a melting point of 222 °C.

In turn, `NC(=O)CN1Cc2ccccc2CCC1=O` had a melting point of 156 to 158 °C.

Take `Cc1cccc(S(=O)(=O)NC(=O)NCCCCCCN)c1`: the melting point is 187 °C.

A word on the melting point: it is the temperature of the solid-liquid transition.

Source of the values: a melting point compilation (Tetko et al.; mined from patent text by program, amines drawn as free bases though some values may be those of a salt).
